Measurements taken from US11325943B2, “Crystalline salt forms of SBT-20” (priority 2017, dated 2022).
Where two headings read alike, the source gives them in different places. Non-standard residues stand in square brackets, D forms with d. Residues, ends and D or L forms follow the SMILES beside them.

Columns and labels:
[1] = counter-ions studied during the initial salt screening; cited from earlier work
[2] = Exposure of amorphous salts to humidity (saturated NaCl solution, 75% RH at room temperature) for stability assessment; format: physicochemical; conditions: for behaviour on exposure to 75% RH: a week of exposure (repeat)
Text: Although amorphous, salts that were produced earlier were exposed to Humidity through saturated NaCl solution (75% RH at room temperature) for stability assessment.
Other salts of SBT-020 that were made during the initial screening that were missing in Table 13 were exposed to 75% RH. The missing salts were Maleate, Salicylate, Tartarate (repeat), Succinate and Phosphate (repeat).

[3] = Qualitative solubility in water; format: physicochemical; conditions: at RT
Text: No signs of acetic acid were observed.

| Compound | pKa1 [1] | behaviour on exposure to 75% RH [2] | further results |
| --- | --- | --- | --- |
| O=S(=O)(O)c1ccccc1 [Benzene sulfonic acid] | −2.8 | – | – |
| Br [Hydrobromic acid] | −8 | – | – |
| Phosphate | – | became wet, though they did not deliquesce even after a week | physical stability upon humidity exposure [2]: demonstrated physical stability upon humidity exposure |
| O=C(O)CC(O)C(=O)O (stereo not shown) [Malic acid] | 3.4 | – | pKa2 [1]: 5.2 |
| N=C(N)NCCC[C@@H](NC(=O)[C@@H](N)Cc1ccccc1)C(=O)N[C@@H](Cc1ccccc1)C(=O)N[C@@H](CCCCN)C(N)=O [Tosylate] (H-F[dR]FK-NH2) | – | – | physical stability upon humidity exposure ([2]; saturated NaCl solution, 75% RH at room temperature, amorphous salts): demonstrated physical stability upon humidity exposure; physical stability upon humidity exposure ([2]; saturated NaCl solution, 75% RH at room temperature, amorphous salts, listed as tosylate): best stability under humidity exposure; solubility [3]: > 100 mg/mL |
| Tartarate | – | became wet, though they did not deliquesce even after a week | – |
